The values below come from ChEMBL document CHEMBL1141849, “A beta-carboline alkaloid from the soft coral lignopsis spongiosum” (1999).

For this assay, the system named is Escherichia coli. The assay is described as follows: Antibacterial activity against Escherichia coli ATCC 25922 at 50 ug/disk by agar diffusion assay. Format: functional. The note with it: read-out: IZ. Background: A growth-free zone around the sample is the usual read-out of agar diffusion tests.

On to `C[n+]1cc2[nH]c3ccccc3c2cc1C(=O)[O-]`, for which the zone of inhibition at 50 µg/disc was 11 mm.
